Measured values taken from US11369584B2, “Andrographolide derivatives and method of using the same for treatment or prevention of fibrosis” (Zhengzhou University, priority 2017, dated 2022).

Columns and labels:
[1] = test system: human proximal tubular epithelial cells HK-2; experiment: TGF-β1-induced conversion of HK-2 cells to mesenchymal cells (morphological observation); format: cell-based; conditions: TGF-β1 5 ng/mL, 48 h, test concentrations 0.08-[…]
Procedure: Human proximal tubular epithelial cells HK-2 (provided by the China Center for Type Culture Collection) were used to study the in vitro anti-renal fibrosis effect of the compounds of the disclosure in comparison with andrographolide (AD). HK-2 cells were cultured in DMEM-F12 medium containing 10% (V/V) fetal bovine serum, 100 μg/mL streptomycin, and 100 IU/mL penicillin respectively, and then incubated in an incubator at 5% CO2 and 37° C., humidified atmosphere. HK-2 cells in logarithmic growth phase were digested with 0.25% (w/v) trypsin and 0.02% EDTA (W/V), and diluted into 5.0×10^6/mL cell suspension with DMEM-F12 medium containing 10% (v/v) fetal bovine serum. After each 96-well plate was filled with 200 μL cell suspension, the plates were placed in an incubator for 24 h in order to generate a single layer of cells. The original medium was discarded, and the cells were washed twice with PBS, and the medium without serum was added. After 24 h of re-synchronized, 200 μL of DMEM-F12 medium containing different concentrations of the test compound and the stimulating factor TGF-β1 (5 ng/mL) was added. Each treatment was repeated in 4 wells and control group was set up. After 48 h of incubation, the cells were photographed under a microscope.

[2] = test system: SD rats with liver fibrosis induced by CCl4; experiment: CCl4-induced liver fibrosis in SD rats; format: in vivo; conditions: ELISA
Procedure: SD rats were fed ad libitum for 3 days, and then randomly divided into normal group and model group. Subcutaneous injection of 40% CCl4 of soybean oil to the rats of model group for the first time. Following an initial dose of 4 mL/kg, each subsequent dose was 2 mL/kg, 2 times every week. The corresponding volumes of soy oil were injected subcutaneously to the normal group. After 4 weeks of modeling, except for the normal group, other rats were weighed individually and then randomly divided into eight rats per group. The dosages of andrographolide, oxymatrine, silibinin and the compound A of the disclosure were both 20 mg/kg, and the doses of other compounds were the same molar mass as compound A, and the model group and the normal group were given an equal amount of 0.5% CMC-Na. During the 5th and 6th weeks of the experiment, modeling and administration were carried out simultaneously, furthermore, the modeling was stopped at the 7th and 8th weeks, while the administered continued to carry out. Drugs were administrated by gavage on an empty stomach in the morning every day, and were given daily for 10 days followed by 1-day break. The bedding of the rats should be replaced at the first 8 hours of the last gavage, strictly fasting with nothing but water. After 1 h of administration, an anesthetic of 3% pentobarbital sodium (2 mL/kg) was intraperitoneally injected. […] Image-Pro Plus software performed semi-quantitative analysis of fibrosis histology on the photographs of Masson stained sections. […] The expression of α-SMA (a marker of the degree of HSC activation) in liver tissue was evaluated by immunohistochemistry, and the positive expression was quantified using Image-Pro Plus, the results were shown in FIGS. 6 and 7. Data were processed and analyzed using SPSS 17.0 statistical software. Data were expressed as mean±standard deviation (X±S); There were significant differences between groups when P<0.05. The levels of LN, C-I, PC-III and C-IV in the serum of the animals were determined by ELISA using the compound H of the disclosure as a representative. Data were processed and analyzed using SPSS 17.0 statistical software. Data were expressed as mean±standard deviation (X±S); There were significant differences between groups when P<0.05. The level of IL-6 and TNF-α in the serum of the animal was determined by ELISA using the compound H of the disclosure as a representative, the results were shown in FIGS. 20 and 21. Data were processed and analyzed using SPSS 17.0 statistical software. Data were expressed as mean±standard deviation (X±S); There were significant differences between groups when P<0.05. The level of SOD and MDA in the liver tissue of the animal was determined by the compound H of the disclosure, the results were shown in FIGS. 22 and 23. […]

Row | SMILES | Inhibitory effect ([1]; Table 1A) | Optimal effective dose range ([1]; Table 1A) [µM] | Inhibitory effect ([1]; Table 1B) | Optimal effective dose range ([1]; Table 1B) [µM] | content of C-I in liver tissue [2] | content of C-IV in the serum [2]
1 | C=C1CC[C@@H]2[C@](C)(CO)[C@H](O)CC[C@@]2(C)[C@@H]1C/C=C1/C(=O)OC[C@H]1O [AD, andrographolide] | Medium | 0.31 to 1.25 | Medium | 0.31 to 1.25 | significantly reduced | significantly reduced
2 | O=C1CCC[C@@H]2[C@H]3CCC[N+]4([O-])CCC[C@@H](CN12)[C@@H]34 (some centres unmarked) [Oxymatrine, oxymatrine] |  |  |  |  | significantly reduced | significantly reduced
